Source: PubChem BioAssay AID1259408 (Genetic Toxicology Data Bank (GENE-TOX), 2018)
Activity calls are given as the source filed them. How the calls were made is not given here.

Tested on: GENE-TOX genotoxicity assays, various organisms and cells
Assay: GENE-TOX mutagenicity studies
Conditions: for call: Assay Type: In vivo carcinogenicity studies
[1] = Species/Cell Type: Chinese hamster lung (V79) cells, Assay Type: Forward gene mutation at the HPRT or ouabain locus, Assay Code: V79+, Evaluation Type: Evaluation A (Pre-1980)
[2] = Species/Cell Type: Mouse, Sex: Male, Assay Type: Sperm morphology, Assay Code: SPI-, Evaluation Type: Evaluation A (Pre-1980)
[3] = Species/Cell Type: Nonhuman, Assay Type: Sister-chromatid exchange (SCE) in vitro, Assay Code: SC2+D, Dose Response: With dose response, Evaluation Type: Evaluation B (Post-1980)
[4] = Species/Cell Type: Saccharomyces cerevisiae, Assay Type: Mitotic recombination or gene conversion, Assay Code: YEC+, Evaluation Type: Evaluation A (Pre-1980)
[5] = Species/Cell Type: Saccharomyces cerevisiae, Assay Type: Mitotic recombination or gene conversion, Assay Code: YEH+, Evaluation Type: Evaluation A (Pre-1980)
[6] = Species/Cell Type: Saccharomyces cerevisiae, Assay Type: Reverse gene mutation, Assay Code: YER+, Evaluation Type: Evaluation A (Pre-1980)
[7] = Species/Cell Type: Drosophila melanogaster, Assay Type: Sex-linked recessive lethal gene mutation, Assay Code: SRL+, Evaluation Type: Evaluation A (Pre-1980)
[8] = Species/Cell Type: Nonhuman, Assay Type: Sister-chromatid exchange (SCE) in vivo, Assay Code: SC3+D, Dose Response: With dose response, Evaluation Type: Evaluation B (Post-1980)
[9] = Species/Cell Type: Salmonella typhimurium (one or more of the five standard strains: TA98, TA100, TA1535, TA1537, and TA1538), Assay Type: Histidine reverse gene mutation, Ames assay, Assay Code: SALT, Evaluation Type: Evaluation A (Pre-1980)

## NC(=O)/C(=C\c1ccc([N+](=O)[O-])o1)c1ccco1
Species/Cell Type: Bacillus subtilis (H17 vs M45), Assay Type: Rec-assay, spot test, DNA effects (bacterial DNA repair), Assay Code: REW+, Evaluation Type: Evaluation A (Pre-1980)
  mutagenic call: active; positive
[1]
  mutagenic call: active; positive
Species/Cell Type: Drosophila melanogaster, Assay Type: Sex-linked recessive lethal gene mutation, Assay Code: SRLT, Evaluation Type: Evaluation A (Pre-1980)
  mutagenic call: no conclusion
Species/Cell Type: Escherichia coli WP2 UVRA, Assay Type: Tryptophan reverse gene mutation, Assay Code: WPU+D, Dose Response: With dose response, Evaluation Type: Evaluation A (Pre-1980)
  mutagenic call: active; positive
Species/Cell Type: Human diploid fibroblasts, Assay Type: Unscheduled DNA synthesis (UDS) in vitro, DNA effects, Assay Code: UDHT, Evaluation Type: Evaluation A (Pre-1980)
  mutagenic call: no conclusion
Species/Cell Type: Human, Assay Type: Sister-chromatid exchange (SCE) in vitro, Assay Code: SC1+D, Dose Response: With dose response, Evaluation Type: Evaluation B (Post-1980)
  mutagenic call: active; positive
Species/Cell Type: Mammalian polychromatic erythrocytes, Assay Type: Micronucleus test, chromosome aberrations, Assay Code: MNTT, Evaluation Type: Evaluation A (Pre-1980)
  mutagenic call: no conclusion
Species/Cell Type: Mouse lymphoma (L5178Y) cells, Assay Type: Forward gene mutation at the thymidine kinase (TK) locus, chromosome aberrations, Assay Code: L51+, Evaluation Type: Evaluation A (Pre-1980)
  mutagenic call: active; positive
[2]
  mutagenic call: inactive; negative
Species/Cell Type: Neurospora crassa, Assay Type: Forward gene mutation, Assay Code: NEF+, Evaluation Type: Evaluation A (Pre-1980)
  mutagenic call: active; positive
Species/Cell Type: Neurospora crassa, Assay Type: Reverse gene mutation, Assay Code: NER+, Evaluation Type: Evaluation A (Pre-1980)
  mutagenic call: active; positive
Species/Cell Type: Nonhuman, Assay Code: CCG+, Evaluation Type: Evaluation A (Pre-1980)
  call: active; positive
[3]
  mutagenic call: active; positive
Species/Cell Type: Rodents, Sex: Male, Assay Type: Dominant lethal test, Assay Code: DLT-, Evaluation Type: Evaluation A (Pre-1980)
  mutagenic call: inactive; negative
[4]
  mutagenic call: active; positive
[5]
  mutagenic call: active; positive
[6]
  mutagenic call: active; positive
Species/Cell Type: Salmonella typhimurium (one or more of the five standard strains: TA98, TA100, TA1535, TA1537, and TA1538), Assay Type: Histidine reverse gene mutation, Ames assay, Assay Code: SAL+, Evaluation Type: Evaluation A (Pre-1980)
  mutagenic call: active; positive
Species/Cell Type: Syrian hamster embryo (SHE) cells, Assay Type: Cell transformation, clonal assay, Assay Code: CTC+, Evaluation Type: Evaluation A (Pre-1980)
  mutagenic call: active; positive

## O=[N+]([O-])c1ccc2ccc3c4ccccc4cc4ccc1c2c43
Species/Cell Type: Chinese hamster ovary (CHO) cells, Assay Type: Forward gene mutation at the HPRT locus, Assay Code: CHO+*, Activation: With metabolic activation, Evaluation Type: Evaluation B (Post-1980)
  mutagenic call: active; positive

## O=c1[nH]c(=O)n([C@H]2C[C@H](O)[C@@H](CO)O2)cc1Br
Species/Cell Type: Arabidopsis species, Assay Type: Gene mutation, Assay Code: ARMT, Evaluation Type: Evaluation A (Pre-1980)
  mutagenic call: no conclusion
[1]
  mutagenic call: active; positive
Species/Cell Type: Chinese hamster ovary (CHO) cells, Assay Type: Forward gene mutation at the HPRT locus, Assay Code: CHO+, Evaluation Type: Evaluation B (Post-1980)
  mutagenic call: active; positive
[7]
  mutagenic call: active; positive
Species/Cell Type: Drosophila melanogaster, Sex: Male, Assay Type: Heritable translocation test, chromosome aberrations, Assay Code: DHTT, Evaluation Type: Evaluation A (Pre-1980)
  mutagenic call: no conclusion
Species/Cell Type: Escherichia coli polA (W3119 vs P3478), Assay Type: Rec-assay, DNA effects (bacterial DNA repair), Assay Code: RE1T, Evaluation Type: Evaluation A (Pre-1980)
  mutagenic call: no conclusion
Species/Cell Type: Human diploid fibroblasts, Assay Type: Unscheduled DNA synthesis (UDS) in vitro, DNA effects, Assay Code: UDH-, Evaluation Type: Evaluation A (Pre-1980)
  mutagenic call: inactive; negative
Species/Cell Type: Human embryo lung fibroblasts (WI-38 cells), Assay Type: Sister-chromatid exchange (SCE) in vitro, Assay Code: SCW+D, Dose Response: With dose response, Evaluation Type: Evaluation A (Pre-1980)
  mutagenic call: active; positive
Species/Cell Type: Human embryo lung fibroblasts (WI-38 cells), Assay Type: Sister-chromatid exchange (SCE) in vitro, Assay Code: SCW+D, Dose Response: With dose response, Evaluation Type: Evaluation B (Post-1980)
  mutagenic call: active; positive
Species/Cell Type: Human lymphocytes, Assay Type: Micronucleus test in vitro, chromosome aberrations, Assay Code: MN7+, Evaluation Type: Evaluation A (Pre-1980)
  mutagenic call: active; positive
Species/Cell Type: Human lymphocytes, Assay Type: Sister-chromatid exchange (SCE) in vitro, Assay Code: SCL+D, Dose Response: With dose response, Evaluation Type: Evaluation A (Pre-1980)
  mutagenic call: active; positive
Species/Cell Type: Human lymphocytes, Assay Type: Sister-chromatid exchange (SCE) in vitro, Assay Code: SCLT, Evaluation Type: Evaluation B (Post-1980)
  mutagenic call: no conclusion
Species/Cell Type: Human, Assay Type: Sister-chromatid exchange (SCE) in vitro, Assay Code: SC1+D, Dose Response: With dose response, Evaluation Type: Evaluation A (Pre-1980)
  mutagenic call: active; positive
Species/Cell Type: Human, Assay Type: Sister-chromatid exchange (SCE) in vitro, Assay Code: SC1T, Evaluation Type: Evaluation B (Post-1980)
  mutagenic call: no conclusion
Species/Cell Type: Mammalian polychromatic erythrocytes, Assay Type: Micronucleus test, chromosome aberrations, Assay Code: MNT+, Evaluation Type: Evaluation A (Pre-1980)
  mutagenic call: active; positive
Species/Cell Type: Mouse (C3H/10T1/2) cells, Assay Type: Cell transformation, Assay Code: CTH-, Evaluation Type: Evaluation A (Pre-1980)
  mutagenic call: inactive; negative
Species/Cell Type: Mouse, Sex: Male, Assay Type: Sperm morphology, Assay Code: SPI+, Evaluation Type: Evaluation A (Pre-1980)
  mutagenic call: active; positive
Species/Cell Type: Nonhuman, Assay Code: CCGT, Evaluation Type: Evaluation A (Pre-1980)
  call: no conclusion
Species/Cell Type: Nonhuman, Assay Type: Sister-chromatid exchange (SCE) in vitro, Assay Code: SC2+D, Dose Response: With dose response, Evaluation Type: Evaluation A (Pre-1980)
  mutagenic call: active; positive
[3]
  mutagenic call: active; positive
Species/Cell Type: Nonhuman, Assay Type: Sister-chromatid exchange (SCE) in vivo, Assay Code: SC3+D, Dose Response: With dose response, Evaluation Type: Evaluation A (Pre-1980)
  mutagenic call: active; positive
[8]
  mutagenic call: active; positive
Species/Cell Type: Saccharomyces cerevisiae, Assay Type: Mitotic recombination or gene conversion, Assay Code: YEH-, Evaluation Type: Evaluation A (Pre-1980)
  mutagenic call: inactive; negative
Species/Cell Type: Syrian hamster embryo (SA7/SHE) cells, Assay Type: Cell transformation, viral enhanced, Assay Code: CT7+, Evaluation Type: Evaluation A (Pre-1980)
  mutagenic call: active; positive
Species/Cell Type: Syrian hamster embryo (SHE) cells, Assay Type: Cell transformation, clonal assay, Assay Code: CTCT, Evaluation Type: Evaluation A (Pre-1980)
  mutagenic call: no conclusion

## FC(F)(F)C(Cl)Br (stereo unspecified)
Species/Cell Type: Chinese hamster lung (V79) cells, Assay Type: Forward gene mutation at the HPRT or ouabain locus, Assay Code: V79-, Evaluation Type: Evaluation A (Pre-1980)
  mutagenic call: inactive; negative
[7]
  mutagenic call: active; positive
Species/Cell Type: Human lymphocytes, Assay Type: Sister-chromatid exchange (SCE) in vivo, Assay Code: SCY+, Evaluation Type: Evaluation B (Post-1980)
  mutagenic call: active; positive
[2]
  mutagenic call: inactive; negative
Species/Cell Type: Nonhuman, Assay Code: CCG-L, Evaluation Type: Evaluation A (Pre-1980)
  call: inactive; negative
Species/Cell Type: Nonhuman, Assay Type: Sister-chromatid exchange (SCE) in vitro, Assay Code: SC2T, Evaluation Type: Evaluation B (Post-1980)
  mutagenic call: no conclusion
Species/Cell Type: Nonhuman, Assay Type: Sister-chromatid exchange (SCE) in vivo, Assay Code: SC3T, Evaluation Type: Evaluation B (Post-1980)
  mutagenic call: no conclusion
[4]
  mutagenic call: active; positive
[5]
  mutagenic call: active; positive
[6]
  mutagenic call: active; positive
Species/Cell Type: Vicia faba, Assay Type: Chromosome aberrations, Assay Code: VIC+D, Dose Response: With dose response, Evaluation Type: Evaluation A (Pre-1980)
  mutagenic call: active; positive

## Cc1cc(N=Nc2c(O)ccc3ccccc23)c(S(=O)(=O)O)cc1Cl
[9]
  mutagenic call: no conclusion

## COc1ccc(C(=C(c2ccc(OC)cc2)c2ccc(OC)cc2)c2ccc(OC)cc2)cc1
[9]
  mutagenic call: no conclusion

## O=[N+]([O-])c1cc(Cl)cc(Sc2cc(Cl)cc([N+](=O)[O-])c2O)c1O
Species/Cell Type: Mammalian polychromatic erythrocytes, Assay Type: Micronucleus test, chromosome aberrations, Assay Code: MNTT, Evaluation Type: Evaluation B (Post-1980)
  mutagenic call: no conclusion

## C=C[C@H]1CN2CC[C@H]1C[C@H]2[C@H](O)c1ccnc2ccc(OC)cc12
Species/Cell Type: Mammalian polychromatic erythrocytes, Assay Type: Micronucleus test, chromosome aberrations, Assay Code: MNT+U, Dose Response: Unconfirmed positive response, Evaluation Type: Evaluation B (Post-1980)
  mutagenic call: active; positive
[8]
  mutagenic call: active; positive
